# From ChEMBL document CHEMBL1201862, “PubChem BioAssay data set” (2004)
# The source made the active and inactive calls.
# Columns and labels:
# Cytochrome P450 2D6 = Cytochrome P450 2D6 (Homo sapiens, UniProt P10635);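 further: CYP2D6 member of a cytochrome P450 panel assay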
# Cytochrome P450 2C9 = Cytochrome P450 2C9 (Homo sapiens, UniProt P11712)
# Cytochrome P450 2C19 = Cytochrome P450 2C19 (Homo sapiens, UniProt P33261); test: Cytochrome panel assay with activity outcomes. Panel member name: p450-cyp2c19 Compounds with AC50 equal or less than 10 uM are considered active; format: functional; conditions: read-out: AC50
# H9c2 = test: cells; format: functional, cell-based; conditions: Rattus norvegicus, H9c2, Myocardium;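 further: confirmatory concentration-response retest of ultra-high-throughput screening hits for modulation of myocardial damage; cell death induced by hydrogen peroxide oxidative stress; compound pretreatment for 60 min then peroxide exposure for 2 h; potency is for protecting the cells against peroxide damage rather than for killing them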
# [1] = biological target: T1, DNA repair and recombination protein RAD54-like (Homo sapiens, UniProt Q92698); test: inhibitors of human RAD54 branch migration, confirmation, biochemical, fluorescence, cherry-picked samples, dose series (AID 651657); format: functional
# T1 sequence (Q92698 whole entry): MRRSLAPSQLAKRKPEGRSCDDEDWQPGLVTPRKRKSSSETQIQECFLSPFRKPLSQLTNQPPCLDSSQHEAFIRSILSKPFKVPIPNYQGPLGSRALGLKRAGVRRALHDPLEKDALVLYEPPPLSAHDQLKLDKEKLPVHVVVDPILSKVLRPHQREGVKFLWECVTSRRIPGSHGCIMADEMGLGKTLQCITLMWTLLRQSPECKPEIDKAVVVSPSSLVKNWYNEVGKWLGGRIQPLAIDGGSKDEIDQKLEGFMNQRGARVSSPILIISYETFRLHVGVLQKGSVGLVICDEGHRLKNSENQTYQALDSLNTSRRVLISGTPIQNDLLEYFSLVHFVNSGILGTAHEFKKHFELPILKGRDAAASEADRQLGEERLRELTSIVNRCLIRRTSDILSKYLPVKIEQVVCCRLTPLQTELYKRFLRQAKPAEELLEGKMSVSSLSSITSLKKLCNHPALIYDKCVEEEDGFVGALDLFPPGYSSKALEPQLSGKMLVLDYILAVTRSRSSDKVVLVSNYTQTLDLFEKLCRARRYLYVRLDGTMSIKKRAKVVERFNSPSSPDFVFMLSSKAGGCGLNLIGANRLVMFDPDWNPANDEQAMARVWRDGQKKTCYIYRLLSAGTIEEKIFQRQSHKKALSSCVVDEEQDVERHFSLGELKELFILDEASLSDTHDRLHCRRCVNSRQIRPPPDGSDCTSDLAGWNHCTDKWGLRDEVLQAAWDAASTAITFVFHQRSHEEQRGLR
# [2] = biological target: T2, Heat shock factor protein 1 (Mus musculus, UniProt P38532); test: HSF1 potentiators in luciferase reporter cells, confirmation, cell-based, NIH3T3, luminescence, dose retest (AID 435004); format: functional;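 further: stress induced by proteasome inhibitor MG132 added 30 min after compound; luciferase reporter driven by HSF1 response element in NIH3T3 cells; actives raise luminescence as potentiators of the MG132 stress response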
# T2 sequence (P38532 whole entry): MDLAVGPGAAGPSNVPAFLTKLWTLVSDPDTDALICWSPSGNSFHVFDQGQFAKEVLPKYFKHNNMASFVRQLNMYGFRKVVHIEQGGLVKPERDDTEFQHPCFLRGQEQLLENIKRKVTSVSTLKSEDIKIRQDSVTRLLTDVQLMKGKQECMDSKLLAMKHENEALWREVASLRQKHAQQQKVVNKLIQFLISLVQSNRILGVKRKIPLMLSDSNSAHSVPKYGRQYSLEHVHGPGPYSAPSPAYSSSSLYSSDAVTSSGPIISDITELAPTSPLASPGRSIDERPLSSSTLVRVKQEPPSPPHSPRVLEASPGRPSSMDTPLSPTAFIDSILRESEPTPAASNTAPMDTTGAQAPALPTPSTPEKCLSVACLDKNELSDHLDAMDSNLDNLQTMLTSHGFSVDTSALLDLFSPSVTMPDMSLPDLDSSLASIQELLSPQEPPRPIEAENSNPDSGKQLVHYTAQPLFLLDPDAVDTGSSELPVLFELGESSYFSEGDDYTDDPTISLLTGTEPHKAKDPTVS
# [3] = biological target: T3, Short transient receptor potential channel 4 (Mus musculus, UniProt Q9QUQ5); test: mouse TRPC4 channel inhibitors, dose response, cell-based, HEK293 TRPC4/mu-opioid, Fluo-4 calcium (AID 434942); format: functional;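 further: potency of inhibitors blocking the TRPC4 calcium response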
# T3 sequence (Q9QUQ5 whole entry): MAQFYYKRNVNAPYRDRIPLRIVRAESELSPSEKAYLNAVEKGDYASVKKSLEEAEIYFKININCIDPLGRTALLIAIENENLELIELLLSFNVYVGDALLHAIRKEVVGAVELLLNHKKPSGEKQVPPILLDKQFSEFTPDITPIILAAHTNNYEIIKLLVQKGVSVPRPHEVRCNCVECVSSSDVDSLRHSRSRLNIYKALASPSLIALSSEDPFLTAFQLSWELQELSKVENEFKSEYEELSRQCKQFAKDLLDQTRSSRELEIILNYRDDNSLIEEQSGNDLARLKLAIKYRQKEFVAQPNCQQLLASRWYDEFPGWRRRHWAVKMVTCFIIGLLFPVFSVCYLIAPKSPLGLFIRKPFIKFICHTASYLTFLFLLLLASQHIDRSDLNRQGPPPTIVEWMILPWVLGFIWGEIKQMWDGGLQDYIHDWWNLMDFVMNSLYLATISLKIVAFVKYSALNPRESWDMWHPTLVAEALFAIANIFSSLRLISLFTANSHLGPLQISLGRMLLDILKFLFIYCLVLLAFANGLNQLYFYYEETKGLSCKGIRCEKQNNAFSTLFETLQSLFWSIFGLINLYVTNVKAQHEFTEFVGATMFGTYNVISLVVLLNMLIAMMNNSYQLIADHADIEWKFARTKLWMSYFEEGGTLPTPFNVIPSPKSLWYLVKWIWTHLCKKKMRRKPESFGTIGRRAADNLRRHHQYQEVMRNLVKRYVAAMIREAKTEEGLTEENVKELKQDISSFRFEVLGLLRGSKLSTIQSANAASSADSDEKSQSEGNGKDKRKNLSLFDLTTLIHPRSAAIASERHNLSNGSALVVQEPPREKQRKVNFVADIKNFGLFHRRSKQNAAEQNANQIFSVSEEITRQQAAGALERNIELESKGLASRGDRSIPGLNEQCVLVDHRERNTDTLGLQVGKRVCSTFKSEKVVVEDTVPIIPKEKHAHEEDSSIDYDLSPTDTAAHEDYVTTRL
# [4] = Luminescence Cell-Based Dose Confirmation HTS to Identify Inhibitors of Platelet Dense Granule Release. [Related pubchem assays: 1663 (Primary HTS), 1678 (Summary of Project)]; format: functional
# [5] = biological target: Luciferin 4-monooxygenase (Photinus pyralis, UniProt P08659); test: firefly luciferase enzyme inhibitors, dose response, biochemical, luminescence (AID 1891)
# HEK293 [6] = test: inhibitors of LMP1-driven NF-kB reporter, dose response, cell-based, HEK293, luciferase, cherry-pick (AID 588343); format: functional; conditions: Homo sapiens
# [7] = biological target: T3, Short transient receptor potential channel 4; test: mouse TRPC4 channel activators, dose response, cell-based, HEK293 TRPC4/mu-opioid, Fluo-4 calcium (AID 434937); format: functional
# [8] = inhibitors of firefly luciferase expression or activity, dose response, H4 neuroglioma cells, luminescence (AID 1990); format: functional, cell-based
# [9] = inhibitors of SNCA 5'UTR-driven reporter translation, confirmation, H4 neuroglioma cells, luminescence (AID 1988); format: functional, cell-based
# [10] = Luminescence Cell-Based Dose Response HTS to Identify Inhibitors of 5'UTR Stem-Loop Driven Prion Protein mRNA Translation in H4 Neuroglioblastoma Cells. [Related pubchem assays: 1827 (Project Summary), 1813 (Primary HTS)]; format: functional
# HEK293 [11] = test: cells; format: functional, cell-based; conditions: Homo sapiens
# HEK293 [12] = test: NOD1 signaling inhibitors, primary screen, cell-based, luminescence, uHTS (AID 1578); format: functional; conditions: Homo sapiens
# HEK293 [13] = test: NOD2 signaling inhibitors in MDP-stimulated cells, cell-based, uHTS, luminescence (AID 2001); format: functional; conditions: Homo sapiens
# HEK293 [14] = test: cells; format: functional, cell-based; conditions: Homo sapiens; remark: listed apart in the source
# [15] = inhibitors of HIV Env-driven cell fusion, dose response, cherry-pick (AID 652057); format: functional, cell-based
# [16] = inhibitors of clade B AD8 Env fusion, dose response, cell-based, cherry-pick (AID 652062); format: functional;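 further: luciferase signal from cell-cell fusion driven by HIV-1 clade B AD8 Env; potency is for inhibitors of fusion seen as a drop in luminescence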
# Cytochrome P450 2C9, sequence (P11712 whole entry): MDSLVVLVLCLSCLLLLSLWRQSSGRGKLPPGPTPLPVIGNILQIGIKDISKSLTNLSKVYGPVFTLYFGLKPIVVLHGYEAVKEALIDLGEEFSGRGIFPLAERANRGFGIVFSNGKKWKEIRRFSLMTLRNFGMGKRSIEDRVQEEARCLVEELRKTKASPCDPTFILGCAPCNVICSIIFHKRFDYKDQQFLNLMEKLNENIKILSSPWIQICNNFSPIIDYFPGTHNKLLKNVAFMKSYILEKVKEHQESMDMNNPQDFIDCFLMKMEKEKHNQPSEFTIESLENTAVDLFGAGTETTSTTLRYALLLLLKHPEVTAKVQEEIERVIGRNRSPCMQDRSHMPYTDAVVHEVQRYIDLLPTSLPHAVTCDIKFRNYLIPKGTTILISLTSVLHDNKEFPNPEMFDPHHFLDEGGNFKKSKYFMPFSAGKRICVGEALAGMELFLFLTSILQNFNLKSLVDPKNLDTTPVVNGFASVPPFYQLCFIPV
# Cytochrome P450 2D6, sequence (P10635 whole entry): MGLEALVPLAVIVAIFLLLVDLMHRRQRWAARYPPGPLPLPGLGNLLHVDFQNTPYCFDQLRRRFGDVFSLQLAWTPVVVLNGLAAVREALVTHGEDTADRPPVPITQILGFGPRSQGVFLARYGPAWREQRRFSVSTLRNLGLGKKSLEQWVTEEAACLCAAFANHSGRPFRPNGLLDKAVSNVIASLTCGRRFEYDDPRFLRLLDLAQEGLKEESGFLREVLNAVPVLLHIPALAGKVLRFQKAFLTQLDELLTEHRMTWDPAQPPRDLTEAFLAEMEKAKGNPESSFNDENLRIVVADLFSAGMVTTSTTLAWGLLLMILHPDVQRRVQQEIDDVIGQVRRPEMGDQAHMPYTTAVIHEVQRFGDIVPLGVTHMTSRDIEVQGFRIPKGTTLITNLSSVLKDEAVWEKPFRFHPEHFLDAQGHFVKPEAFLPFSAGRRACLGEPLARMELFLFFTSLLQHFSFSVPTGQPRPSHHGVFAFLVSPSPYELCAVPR
# Cytochrome P450 2C19, sequence (P33261 whole entry): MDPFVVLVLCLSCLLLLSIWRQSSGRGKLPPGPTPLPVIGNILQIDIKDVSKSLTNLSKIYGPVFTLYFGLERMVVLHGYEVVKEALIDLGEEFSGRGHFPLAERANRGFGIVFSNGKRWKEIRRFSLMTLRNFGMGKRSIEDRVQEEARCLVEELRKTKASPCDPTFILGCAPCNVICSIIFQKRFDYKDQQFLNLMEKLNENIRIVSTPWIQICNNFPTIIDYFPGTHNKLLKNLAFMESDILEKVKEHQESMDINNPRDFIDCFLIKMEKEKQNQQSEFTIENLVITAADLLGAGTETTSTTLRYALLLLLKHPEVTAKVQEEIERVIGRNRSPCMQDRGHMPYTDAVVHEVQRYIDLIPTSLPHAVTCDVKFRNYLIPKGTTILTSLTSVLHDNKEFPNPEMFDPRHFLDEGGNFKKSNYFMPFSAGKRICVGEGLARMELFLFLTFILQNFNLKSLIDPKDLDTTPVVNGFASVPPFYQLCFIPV
# Luciferin 4-monooxygenase, sequence (P08659 whole entry): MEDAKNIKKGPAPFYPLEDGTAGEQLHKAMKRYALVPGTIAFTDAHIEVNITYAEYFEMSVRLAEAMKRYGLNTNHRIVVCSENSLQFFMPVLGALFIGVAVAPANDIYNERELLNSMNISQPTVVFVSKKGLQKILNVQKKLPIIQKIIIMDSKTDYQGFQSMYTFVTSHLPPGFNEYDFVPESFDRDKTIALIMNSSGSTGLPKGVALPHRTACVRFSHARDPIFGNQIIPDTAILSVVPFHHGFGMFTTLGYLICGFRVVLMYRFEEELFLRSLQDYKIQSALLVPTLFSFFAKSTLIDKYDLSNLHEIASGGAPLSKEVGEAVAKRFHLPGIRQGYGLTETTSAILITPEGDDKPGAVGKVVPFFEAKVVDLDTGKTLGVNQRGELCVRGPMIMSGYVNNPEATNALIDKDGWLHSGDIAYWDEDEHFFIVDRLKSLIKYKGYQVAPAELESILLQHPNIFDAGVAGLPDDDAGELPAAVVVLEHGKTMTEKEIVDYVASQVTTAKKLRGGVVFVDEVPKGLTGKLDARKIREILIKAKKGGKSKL
smiles,measurement,setting,value
COc1cccc(C(=O)NNC2=CC(=O)CC(C)(C)C2)c1,AC50,Cytochrome P450 2D6,12.6 µM (inconclusive)
same,AC50,Cytochrome P450 2C9,inconclusive
same,AC50,Cytochrome P450 2C19,25.1 µM (inconclusive)
O=C(CCCN1C(=O)c2cccc3cccc(c23)C1=O)N1CCN(c2ccccc2O)CC1,IC50,H9c2,9.95 µM (active)
Cc1cc(C)n(-c2nc(NCCN(C)C)c3c4c(sc3n2)COC(C)(C)C4)n1,AC50,[1],100 µM (inactive)
Cc1ccsc1C(=O)C1CCCN(Cc2ccccc2O)C1 (centres undefined),EC50,[2],> 260 µM (inactive)
same,EC50,[3],4.22 µM (active)
COc1ccc(-c2cn3ccc(C)cc3n2)cc1,EC50,[4],9.75 µM (active)
same,EC50,[5],1.13 µM (active)
same,AC50,HEK293 [6],2.62 µM (active)
CN(C)C1(CNC(=O)CC(NC(=O)c2ccccc2Cl)c2ccccc2)CCCCC1 (centres undefined),EC50,[3],0.299 µM (active)
same,EC50,[7],0.668 µM (active)
COc1ccc(C(C(=O)NC2CCCCC2)N2CCC3(CC2)OCCO3)cc1 (centres undefined),AC50,Cytochrome P450 2D6,0.316 µM (inconclusive)
same,AC50,Cytochrome P450 2C9,inconclusive
COc1ccc(N2CCN(S(=O)(=O)c3ccc4c(c3)CCCC4)CC2)c([N+](=O)[O-])c1,AC50,Cytochrome P450 2C9,inconclusive
Cc1ccc2nc(C)c3c(c2c1)N(c1ccc(F)cc1)CC3,EC50,[3],3.76 µM (active)
same,AC50,[1],97.9 µM (active)
CCOc1ccc2nc(NC(=O)CN3CCC(n4nnc5cc(F)ccc54)CC3)sc2c1,IC50,H9c2,> 79 µM (inactive)
Cc1cc(C(=O)COc2cccnc2[N+](=O)[O-])c(C)n1-c1ccccc1F,EC50,[8],6.07 µM (active)
same,AC50,HEK293 [6],2.61 µM (active)
same,EC50,[9],0.791 µM (active)
same,EC50,[10],16.8 µM (active)
Cc1nc2cc(NC(=O)c3ccc([N+](=O)[O-])s3)ccc2s1,IC50,HEK293 [11],> 20 µM (inactive)
same,EC50,[8],< 0.1 µM (active)
same,EC50,[9],0.95 µM (active)
same,EC50,HEK293 [12],3.16 µM (active)
same,EC50,[10],4.17 µM (active)
same,IC50,HEK293 [13],> 20 µM (inactive)
same,IC50,HEK293 [14],> 20 µM (inactive)
N#CC1(NC(=O)COC(=O)Cn2[nH]c(=O)c3ccccc3c2=O)CCCCC1,IC50,H9c2,> 79 µM (inactive)
CNCC[C@H](Oc1ccc(C(F)(F)F)cc1)c1ccccc1,AC50,Cytochrome P450 2C9,inactive
FC(F)(F)c1cc(C(F)(F)F)c2ccc(N/N=C/c3cccc(Cl)c3)nc2n1,AC50,Cytochrome P450 2C9,inconclusive
same,AC50,Cytochrome P450 2C19,17.8 µM (inconclusive)
C[C@H](CO)N1C[C@H](C)[C@@H](CN(C)C(=O)[C@H](Cc2ccccc2)N(C)C)OCc2ccccc2-c2c(n(C)c3ccccc23)C1=O,AC50,[15],1.6 µM (active)
same,AC50,[16],13.3 µM (active)
O=C(CCCc1ccc(N(CCCl)CCCl)cc1)NCc1ccccc1,AC50,HEK293 [6],2.74 µM (active)
Cc1ccc2nc(O)c3cc(C(=O)NCCN4CCN(C)CC4)sc3c2c1,AC50,[1],56.7 µM (active)
COc1ccc(-c2csc(NC(=O)CCn3cnc4ccccc4c3=O)n2)cc1OC,IC50,H9c2,27.9 µM (active)
O=C(CCc1nc(O)c2ccccc2n1)N1CCN(S(=O)(=O)c2ccccc2Br)CC1,IC50,H9c2,> 79 µM (inactive)
